Measured values published in PMC6366420, “Design and synthesis of 4-piperazinyl quinoline derived urea/thioureas for anti-breast cancer activity by a hybrid pharmacophore approach” (Journal of Enzyme Inhibition and Medicinal Chemistry, 2019).
Where two headings read alike, the source gives them in different places.

Columns and labels:
MDA-MB468 = test: SRB antiproliferative assay, MDA-MB468; format: cell-based, human; details: read-out: GI50 MDA-MB468
Experimental: (§1) The human breast cancer cell lines MDA-MB468, MDA-MB231 and MCF-7 were purchased from ATCC and maintained in RPMI 1640 medium supplemented with 10% fetal bovine serum (Hyclone, Logan UT) and 2 mM L-glutamine. MCF10A and 184B5 immortalised breast cells were purchased from ATCC and maintained in mammary epithelial basal medium supplemented with an MEGM mammary epithelial singlequot kit (Cambrex). Cells were grown at 37 °C with 5% CO2, 95% air under the humidified conditions. Cell line authentication was carried out by Genetica DNA Laboratories (Burlington, NC) using a short tandem repeat profiling method (March 2015; July 2015; September 2016).
(§2) Cell cytotoxic effects were determined by a SRB-based protocol[2]^,[25].
(§3) The newly synthesised 4-piperazinylquinoline compounds (5–30) were evaluated for their antiproliferative effects using three breast cancer cell lines, for which the compounds were diluted to achieve seven different concentrations ranging from […]. Followed by 48 h incubation with the compound, cells were treated with sulforhodamine B (SRB) to measure their growth/viability (% of the untreated control) by spectrophotometer. The total cellular macromolecules levels known to accurately reflect by UV reading of SRB staining. […] The reference compounds CQ and cisplatin were included for the comparison.

MDA-MB231 = test: SRB antiproliferative assay, MDA-MB231; format: cell-based, human; details: read-out: GI50 MDA-MB231
Experimental: as §1, §2, §3

MCF7 = test: SRB antiproliferative assay, MCF7; format: cell-based, human; details: read-out: GI50 MCF7
Experimental: as §1, §2, §3

184B5 = test: SRB antiproliferative assay, 184B5 non-cancer breast cells; format: cell-based, human; details: read-out: GI50 184B5
Experimental: as §1, §2, §3
(§4) We further assessed their antiproliferative effects on two non-cancer immortalised cell lines (184B5 and MCF10A). […] The antiproliferative effects of compound 23 on cancer cells are thus 7-fold (MDA-MB468 vs MCF10A) to 11-fold (MDA-MB231 vs 184B5) higher than matching non-cancer breast cells, which may indicate that compound 23 could potentially be safer than other compounds. Therefore, we examined it further to gain insights into its molecular mechanism of action.

MCF10A = test: SRB antiproliferative assay, MCF10A non-cancer breast cells; format: cell-based, human; details: read-out: GI50 MCF10A
Experimental: as §1, §2, §3, §4

[1] = test system: breast cancer and non-cancer breast cell lines; test: SRB antiproliferative comparison of breast cancer and non-cancer breast cell lines; format: cell-based, human; details: for antigrowth effect against cancer versus non-cancer cells (in words): three breast cancer lines vs 184B5 and MCF10A; for higher activity than the reference compounds cisplatin and CQ: breast cancer cell lines, GI50 comparison
Experimental: as §1, §2, §3, §4

[2] = Homo sapiens, MDA-MB-468, 48 h, SRB, 48 h incubation, MDA-MB468 breast cancer cells
[3] = Homo sapiens, MDA-MB-231, 48 h, SRB, 48 h incubation, MDA-MB231 triple-negative breast cancer cells
[4] = Homo sapiens, SRB, 48 h incubation, MCF7 breast cancer cells
[5] = Homo sapiens, SRB, 48 h incubation, 184B5 non-cancer immortalised breast cells
[6] = Homo sapiens, MCF-10A, SRB, 48 h incubation, MCF10A non-cancer immortalised breast cells

Row | SMILES | GI50 (MDA-MB468; [2]) [µM] | GI50 (MDA-MB231; [3]) [µM] | GI50 (MCF7; [4]) [µM] | melting point [°C] | GI50 (MDA-MB468; Homo sapiens, MDA-MB-468, 48 h) [µM] | GI50 (MDA-MB231; Homo sapiens, MDA-MB-231, 48 h) [µM] | GI50 (MCF7; Homo sapiens, MCF7, 48 h) [µM] | GI50 (184B5; [5]) [µM] | GI50 (MCF10A; [6]) [µM] | antigrowth effect against cancer versus non-cancer cells (in words) [1] | GI50 (184B5; Homo sapiens, 184B5, 48 h) [µM] | GI50 (MCF10A; Homo sapiens, MCF-10A, 48 h) [µM] | higher activity than the reference compounds cisplatin and CQ [1] | GI50 (MDA-MB468; SRB, 48 h incubation, MDA-MB468 breast cancer cells) [µM] | GI50 (MDA-MB231; SRB, 48 h incubation, MDA-MB231 triple-negative breast cancer cells) [µM] | GI50 (MCF7; SRB, 48 h incubation, MCF7 breast cancer cells) [µM] | GI50 (184B5; SRB, 48 h incubation, 184B5 non-cancer immortalised breast cells) [µM] | GI50 (MCF10A; SRB, 48 h incubation, MCF10A non-cancer immortalised breast cells) [µM]
1 | FC(F)(F)c1ccc2c(N3CCN(C(=S)NCCN4CCOCC4)CC3)ccnc2c1 [Compound 30, 4-(7-Trifluoromethyl-quinolin-4-yl)-piperazine-1-carbothioic acid (2-morpholin-4-yl-ethyl)-amide] | 14.2 ± 0.6 | 11.8 ± 0.9 | 6.2 ± 0.7 | 134 to 135 | – | – | – | 17.4 ± 1 | 18.9 ± 1.3 | much stronger activities against cancer than non-cancer cells | – | – | – | – | – | – | – | –
2 | CCN(CC)CCCC(C)Nc1ccnc2cc(Cl)ccc12 (centres unmarked) [CQ, Chloroquine, reference compound] | – | – | – | – | 28.6 ± 0.2 | 22.5 ± 1.4 | 38.4 ± 0.3 | – | – | – | 76.1 ± 0.2 | 81.3 ± 1.4 | – | – | – | – | – | –
3 | O=C(Nc1c(Cl)cc(Cl)cc1Cl)N1CCN(c2ccnc3cc(C(F)(F)F)ccc23)CC1 [Compound 14, 4-(7-Trifluoromethyl-quinolin-4-yl)-piperazine-1-carboxylic acid (2,4,6-trichloro-phenyl)-amide] | 22.5 ± 0.2 | 21.1 ± 1.3 | 12.6 ± 1.2 | 142 to 143 | – | – | – | 33.2 ± 2.1 | 17.4 ± 0.5 | comparable against cancer and non-cancer cells | – | – | – | – | – | – | – | –
4 | FC(F)(F)c1ccc2c(N3CCN(C(=S)Nc4c(Cl)cc(Cl)cc4Cl)CC3)ccnc2c1 [Compound 28, 4-(7-Trifluoromethyl-quinolin-4-yl)-piperazine-1-carbothioic acid (2,4,6-trichloro-phenyl)-amide] | 23.4 ± 1.9 | 12.2 ± 0.9 | 11.8 ± 1 | 112 to 114 | – | – | – | 5.5 ± 0.5 | 8.2 ± 0.7 | higher activity against non-cancer cells than cancer cells | – | – | – | – | – | – | – | –
5 | O=C(NC1CCCCC1)N1CCN(c2ccnc3cc(C(F)(F)F)ccc23)CC1 [Compound 16, 4-(7-Trifluoromethyl-quinolin-4-yl)-piperazine-1-carboxylic acid cyclohexylamide] | 12.7 ± 0.5 | 20.8 ± 2.3 | 4.9 ± 0.3 | 132 to 133 | – | – | – | 20.8 ± 1.4 | 20.9 ± 1 | comparable against cancer and non-cancer cells | – | – | – | – | – | – | – | –
6 | O=C(Nc1ccc(C(F)(F)F)cc1)N1CCN(c2ccnc3cc(C(F)(F)F)ccc23)CC1 [Compound 13, 4-(7-Trifluoromethyl-quinolin-4-yl)-piperazine-1-carboxylic acid (4-trifluoromethyl-phenyl)-amide] | 2.7 ± 0.1 | 15.3 ± 1.3 | 2 ± 0.1 | 154 to 155 | – | – | – | 1.1 ± 0.1 | 1 ± 0.1 | higher activity against non-cancer cells than cancer cells | – | – | – | – | – | – | – | –
7 | N.N.[Cl][Pt][Cl] [Cisplatin, reference compound] | – | – | – | – | – | – | – | – | – | – | – | – | – | 31 ± 0.3 | 23.6 ± 0.2 | 25.8 ± 0.7 | 25.5 ± 0.6 | 51.5 ± 0.6

Second part, led by results:

Row | GI50 (MDA-MB468; [2]) [µM] | GI50 (MDA-MB231; [3]) [µM] | GI50 (MCF7; [4]) [µM] | melting point [°C] | GI50 (MDA-MB468; Homo sapiens, MDA-MB-468, 48 h) [µM] | GI50 (MDA-MB231; Homo sapiens, MDA-MB-231, 48 h) [µM] | GI50 (MCF7; Homo sapiens, MCF7, 48 h) [µM] | SMILES | GI50 (184B5; [5]) [µM] | GI50 (MCF10A; [6]) [µM] | antigrowth effect against cancer versus non-cancer cells (in words) [1] | GI50 (184B5; Homo sapiens, 184B5, 48 h) [µM] | GI50 (MCF10A; Homo sapiens, MCF-10A, 48 h) [µM] | higher activity than the reference compounds cisplatin and CQ [1] | GI50 (MDA-MB468; SRB, 48 h incubation, MDA-MB468 breast cancer cells) [µM] | GI50 (MDA-MB231; SRB, 48 h incubation, MDA-MB231 triple-negative breast cancer cells) [µM] | GI50 (MCF7; SRB, 48 h incubation, MCF7 breast cancer cells) [µM] | GI50 (184B5; SRB, 48 h incubation, 184B5 non-cancer immortalised breast cells) [µM] | GI50 (MCF10A; SRB, 48 h incubation, MCF10A non-cancer immortalised breast cells) [µM]
8 | 5.1 ± 0.2 | 7.7 ± 0.5 | 4 ± 0.3 | 132 to 133 | – | – | – | S=C(Nc1c(Cl)cc(Cl)cc1Cl)N1CCN(c2ccnc3cc(Cl)ccc23)CC1 [Compound 21, 4-(7-Chloro-quinolin-4-yl)-piperazine-1-carbothioic acid (2,4,6-trichloro-phenyl)-amide] | 4.7 ± 0.3 | 6.8 ± 0.6 | comparable against cancer and non-cancer cells | – | – | – | – | – | – | – | –
9 | 7.8 ± 0.8 | 14.9 ± 1.1 | 4.9 ± 0.4 | 112 to 113 | – | – | – | FC(F)(F)c1ccc(NC(=S)N2CCN(c3ccnc4cc(Cl)ccc34)CC2)cc1 [Compound 19, 4-(7-Chloro-quinolin-4-yl)-piperazine-1-carbothioic acid (4-trifluoromethyl-phenyl)-amide] | 3.7 ± 0.1 | 3.1 ± 0.1 | higher activity against non-cancer cells than cancer cells | – | – | – | – | – | – | – | –
10 | 4.7 ± 0.5 | 5.3 ± 0.5 | 6.6 ± 0.6 | 142 to 143 | – | – | – | O=C(Nc1ccccc1)N1CCN(c2ccnc3cc(Cl)ccc23)CC1 [Compound 5, 4-(7-Chloro-quinolin-4-yl)-piperazine-1-carboxylic acid phenylamide] | 14.1 ± 0.9 | 11.8 ± 1.4 | much stronger activities against cancer than non-cancer cells | – | – | 4-8 fold | – | – | – | – | –
11 | 19.8 ± 0.8 | 21.8 ± 1.5 | 16.6 ± 1.2 | – | – | – | – | O=C(Nc1ccc(C(F)(F)F)cc1)N1CCN(c2ccnc3cc(Cl)ccc23)CC1 [Compound 7, 4-(7-Chloro-quinolin-4-yl)-piperazine-1-carboxylic acid (4-trifluoromethyl-phenyl)-amide] | 4.7 ± 0.3 | 4.6 ± 0.3 | higher activity against non-cancer cells than cancer cells | – | – | – | – | – | – | – | –
12 | 9.4 ± 0.8 | 9.8 ± 1 | 6.4 ± 0.7 | 137 to 138 | – | – | – | FC(F)(F)c1ccc2c(N3CCN(C(=S)Nc4cccc5ccccc45)CC3)ccnc2c1 [Compound 29, 4-(7-Trifluoromethyl-quinolin-4-yl)-piperazine-1-carbothioic acid naphthalen-1-ylamide] | 50.6 ± 3.8 | 69.4 ± 3.7 | much stronger activities against cancer than non-cancer cells | – | – | 4-8 fold | – | – | – | – | –
13 | 11.8 ± 0.6 | 4.8 ± 0.2 | 4.9 ± 0.3 | 171 to 172 | – | – | – | S=C(Nc1ccccc1)N1CCN(c2ccnc3cc(Cl)ccc23)CC1 [Compound 17, 4-(7-Chloro-quinolin-4-yl)-piperazine-1-carbothioic acid phenylamide] | 19.2 ± 1.6 | 13.9 ± 1.3 | much stronger activities against cancer than non-cancer cells | – | – | – | – | – | – | – | –
14 | 11.8 ± 1.6 | 18.7 ± 2.3 | 7 ± 0.7 | 165 to 166 | – | – | – | FC(F)(F)c1ccc2c(N3CCN(C(=S)Nc4ccc(Cl)cc4)CC3)ccnc2c1 [Compound 27, 4-(7-Trifluoromethyl-quinolin-4-yl)-piperazine-1-carbothioic acid (4-chloro-phenyl)-amide] | 7.9 ± 0.6 | 9.2 ± 1 | comparable against cancer and non-cancer cells | – | – | – | – | – | – | – | –
15 | 7.1 | 9.1 ± 1 | 9.4 ± 0.8 | 138 to 139 | – | – | – | O=C(Nc1cccc2ccccc12)N1CCN(c2ccnc3cc(Cl)ccc23)CC1 [Compound 9, 4-(7-Chloro-quinolin-4-yl)-piperazine-1-carboxylic acid naphthalen-1-ylamide] | 21.8 ± 1 | 21.8 ± 1 | much stronger activities against cancer than non-cancer cells | – | – | 4-8 fold | – | – | – | – | –
16 | 10 ± 0.9 | 19.8 ± 1.1 | 30.1 ± 1.2 | 107 to 108 | – | – | – | S=C(Nc1cccc2ccccc12)N1CCN(c2ccnc3cc(Cl)ccc23)CC1 [Compound 22, 4-(7-Chloro-quinolin-4-yl)-piperazine-1-carbothioic acid naphthalen-1-ylamide] | 17.8 ± 0.6 | 13.3 ± 1 | comparable against cancer and non-cancer cells | – | – | – | – | – | – | – | –
